Experiments:
[1] = test system: alpha-secretase product (sAPPα); experiment: Alpha-secretase product (sAPPα) production, Western blotting; type: cell-based, human; conditions: 8 hours, concentrations of FIG. 5
Procedure: The test result confirmed that Justicidin A (C1) obtained in Example 2 and 5-methoxyJusticidin A increased alpha-secretase product (sAPPα). Specifically, the produced amount of sAPPα was measured by treating the cultured cell line (the HeLa cell line transfected with the amyloid precursor protein (APP) driven from human) with Justicidin A (S62-C1) or 5-methoxyJusticitdin A (S62-C2) at a concentration of FIG. 5, culturing it for 8 hours, and measuring the produced amount of sAPPα according to the Western blotting. The negative control was the group with no treatment of Justicidin A or 5-methoxyJusticidin A.

APP endocytosis = APP endocytosis rate (confocal microscopy, reversible biotinylation); type: cell-based, human
Procedure: To test the endocytosis rate of App, 5×10^5 cells of HeLa cell line transfected with amyloid precursor protein (APP) as the substantially same method as Experimental Examples 6 and 7, seeded on poly-D-lysine coated cover glass and incubated for 24 hours. Then, 1 uM Justicidin A and APP antibody (1:100 diluted, SIG-39320, Covance) treated for 45 min at 4° C., washed out to remove free APP antibodies with culture fluid at three times. The cells were incubated at 37° C., starting endocytosis temperature, for 10, 30, and 60 min, and fixed by 4% paraformaldehyde for 15 min. Then, the cells were permeabilized by 0.1% triton X-100 for 5 min, and APP was marked by secondary fluorescent-labeled antibody (1:200 diluted, A11001, Invitrogen).
The change in the location of APP at various times was measured by confocal microscopy (LSM510, Zeiss, Germany) at 488 nm. […] (0 min). The endocytosis started at 37° C. […]
APP fluorescent intensity remained in plasma membrane compared to APP fluorescent intensity in plasma membrane at 0 min was measured.
For quantitative measurement of APP endocytosis rate, a reversible biotinylation method was used. […]
The result of western blotting was measured by band intensity to show the amount of intracellular APP (FIG. 10b; % internalization) with respect to total maAPP on the cell membrane (FIG. 10a).

Q: Which “formation of alpha-secretase product (sAPPα)” value [1] does the source give for `COc1cc2c(OC)c3c(c(-c4ccc5c(c4)OCO5)c2cc1OC)C(=O)OC3` [Justicidin A] here?
A: activated the formation of alpha-secretase product (sAPPα)

Q: And the “APP endocytosis (reversible biotinylation)” value (APP endocytosis; 1 uM pre-treated, 5, 10, 30 min at 37° C.)?
A: showed reduced endocytosis of APP

Q: And the “APP endocytosis (APP fluorescent intensity remaining in plasma membrane)” value (APP endocytosis; 1 uM pre-treatment, confocal microscopy, 10, 30, 60 min at 37° C.)?
A: APP endocytosis was delayed

From patent US9211278B2, “Composition containing arylnaphthalene lignan derivative for preventing and/or treating dementia” (KOREA INSTITUTE OF SCIENCE AND TECHNOLOGY, priority 2012, dated 2015)
